This passage reports Ratio, IC50 and inhibition results from ChEMBL document CHEMBL1130831, “Relationship between dihedral angles of N1 and C9 substituents in 1,4-benzodiazepines and dual cholecystokinin-A and -B antagonistic activities” (Bioorg Med Chem Lett, 1998).

Assay [1] concerns the target Cholecystokinin receptor (Homo sapiens) (UniProt P32239+P32238). Kind of assay: Ratio of inhibitory activity of CCK-A to CCK-B was reported. It is filed as protein assay.
Assay [2] in a line: Compound was evaluated for the inhibition of […] I-CCK-8 binding at Cholecystokinin type B receptor on guinea pig cerebral cortical membranes.
The target in assay [3] is T1, Cholecystokinin receptor type A (Rattus norvegicus, UniProt P30551).
T1 sequence (P30551 whole entry): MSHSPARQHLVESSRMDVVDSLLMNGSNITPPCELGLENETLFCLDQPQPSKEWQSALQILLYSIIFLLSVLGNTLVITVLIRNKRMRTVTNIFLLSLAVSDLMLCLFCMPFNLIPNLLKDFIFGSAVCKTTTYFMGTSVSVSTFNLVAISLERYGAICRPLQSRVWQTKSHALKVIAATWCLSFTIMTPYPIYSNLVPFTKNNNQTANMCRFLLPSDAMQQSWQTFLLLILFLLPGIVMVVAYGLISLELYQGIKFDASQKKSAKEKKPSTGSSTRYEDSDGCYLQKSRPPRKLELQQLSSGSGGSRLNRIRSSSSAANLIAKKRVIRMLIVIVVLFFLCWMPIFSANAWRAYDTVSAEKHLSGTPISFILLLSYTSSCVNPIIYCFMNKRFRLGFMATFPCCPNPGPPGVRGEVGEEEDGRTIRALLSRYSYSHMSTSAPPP
Kind of assay: Compound was evaluated for the inhibition of […] I-CCK-8 binding at Cholecystokinin type A receptor in rat pancreatic membranes. It is filed as cell membranes, Membrane.

Assay [4] addresses T2, Cholecystokinin receptor type A (Rattus norvegicus) (UniProt P30551).
T2 sequence (whole entry): T1 sequence (P30551 whole entry)
Kind of assay: Compound was evaluated for the inhibition of […] I-CCK-8 binding at Cholecystokinin type A receptor in rat pancreatic membranes at 10 e -8 M. As to conditions: Membrane. It is filed as cell membranes.

Chain of Cholecystokinin receptor (Homo sapiens) (P32238 whole entry, looked up): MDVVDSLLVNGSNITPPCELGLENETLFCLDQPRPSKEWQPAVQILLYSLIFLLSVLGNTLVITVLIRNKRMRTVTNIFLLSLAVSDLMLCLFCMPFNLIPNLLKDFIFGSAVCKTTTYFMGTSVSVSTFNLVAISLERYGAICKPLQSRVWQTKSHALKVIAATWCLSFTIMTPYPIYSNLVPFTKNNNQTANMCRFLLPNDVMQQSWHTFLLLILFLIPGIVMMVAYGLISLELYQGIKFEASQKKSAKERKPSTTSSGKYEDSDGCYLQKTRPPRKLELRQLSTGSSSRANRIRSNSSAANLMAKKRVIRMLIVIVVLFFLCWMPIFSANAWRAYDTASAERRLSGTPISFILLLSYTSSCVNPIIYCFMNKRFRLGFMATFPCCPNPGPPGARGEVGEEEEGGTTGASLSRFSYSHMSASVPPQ
Chain of Cholecystokinin receptor (Homo sapiens) (P32239 whole entry, looked up): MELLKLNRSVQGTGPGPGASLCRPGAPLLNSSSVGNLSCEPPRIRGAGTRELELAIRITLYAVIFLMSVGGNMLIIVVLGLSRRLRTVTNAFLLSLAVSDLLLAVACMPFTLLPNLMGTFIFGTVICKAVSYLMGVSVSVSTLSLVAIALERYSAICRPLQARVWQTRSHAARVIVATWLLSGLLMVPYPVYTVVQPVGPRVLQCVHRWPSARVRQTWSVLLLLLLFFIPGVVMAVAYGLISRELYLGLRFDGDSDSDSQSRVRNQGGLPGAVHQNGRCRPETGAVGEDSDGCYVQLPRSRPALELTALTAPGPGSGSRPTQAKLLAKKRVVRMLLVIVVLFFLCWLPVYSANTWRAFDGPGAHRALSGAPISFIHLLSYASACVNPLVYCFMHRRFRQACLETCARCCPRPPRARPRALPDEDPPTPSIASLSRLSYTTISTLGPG

For `O=C(Nc1cccc(-c2nn[nH]n2)c1)NC1N=C(c2ccccc2F)c2cccc(Cl)c2N(CC(=O)N2CC3CCC(CC3)C2)C1=O` (centres undefined), in assay [1], the Ratio turned out to be 20. For `O=C(Nc1cccc(-c2nn[nH]n2)c1)NC1N=C(c2ccccc2F)c2ccccc2N(CC(=O)N2CC3CCC(CC3)C2)C1=O` (centres undefined), in assay [1], the Ratio came to 710. Regarding `Cc1cccc2c1N(CC(=O)N1CC3CCC(CC3)C1)C(=O)C(NC(=O)Nc1cccc(-c3nn[nH]n3)c1)N=C2c1ccccc1F` (centres undefined), the Ratio in assay [1] turned out to be 21. Besides, the IC50 (commonly the concentration needed to halve the response being measured) in assay [2] was determined as 0.68 nM. As to `CCc1cccc2c1N(CC(=O)N1CC3CCC(CC3)C1)C(=O)C(NC(=O)Nc1cccc(-c3nnn[nH]3)c1)N=C2c1ccccc1F` (centres undefined), the IC50 in assay [3] was 18 nM. Take `CCc1cccc2c1N(CC(=O)N1CC3CCC(CC3)C1)C(=O)C(NC(=O)Nc1cccc(-c3nn[nH]n3)c1)N=C2c1ccccc1F` (centres undefined): in assay [1], the Ratio is 22. Consider `CC(C)c1cccc2c1N(CC(=O)N1CC3CCC(CC3)C1)C(=O)C(NC(=O)Nc1cccc(-c3nn[nH]n3)c1)N=C2c1ccccc1F` (centres undefined), for which the inhibition (as a rule, the share of the control response that was lost under treatment) in assay [4] is 12.2%. `O=C(Nc1cccc(-c2nnn[nH]2)c1)NC1N=C(c2ccccc2F)c2ccccc2N(CC(=O)N2CC3CCC(CC3)C2)C1=O` (centres undefined) registered a half-inhibitory concentration (IC50) in assay [3] of 62 nM. Same read-out and setting: the same measure for `O=C(Nc1cccc(-c2nnn[nH]2)c1)NC1N=C(c2ccccc2F)c2cccc(Cl)c2N(CC(=O)N2CC3CCC(CC3)C2)C1=O` (centres undefined): 13 nM.
